This is an account of results in patent US12202835B2, “Substituted aromatic ring-linked dioxinoquinazolines and dioxinoquinolines as kinase inhibitors” (BEIJING SCITECH-MQ PHARMACEUTICALS LIMITED, priority 2018, dated 2025).

In assay [1] the test system is Ba/F3-AXL cells. Put plainly: Assay for inhibiting the proliferation of Ba/F3-AXL cells (CCK-8). The assay is classed as cell-based. Particulars: 72 hours of incubation, medium with 100 ng/mL hGas6, CCK-8. On the procedure: The values were then imported into Graphpad Prism 5 software for curve fitting, and IC50 was calculated.
In assay [2] the target is MER kinase (Homo sapiens (Human), UniProt Q12866). As to the kind of experiment: Assay of small molecular compounds for inhibiting the activity of MER kinase (LANCE TR-FRET). Format: biochemical. The procedure, abridged:
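MER kinase preincubated 5 min at RT with compound (11 points, 0.042-2500 nM final), then ULight-poly GT and ATP added (4× stocks 200 nM and 20 μM) for 60 min at RT, 1% DMSO. Phosphorylation detected by LANCE TR-FRET; IC50 from % inhibition versus controls.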
For orientation: Time-resolved FRET reads energy transfer from a long-lived donor to a nearby acceptor.

In assay [3] the target is c-MET kinase (Homo sapiens (Human), UniProt P08581). As to the kind of experiment: Assay of small molecular compounds for inhibiting the activity of c-MET kinase (LANCE TR-FRET). Format: biochemical. The settings on record: read-out: CMET IC50. Put shortly: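 LANCE TR-FRET assay with c-MET at 1 nM final after a 5 min room-temperature preincubation with compound (11-point, 3-fold series, 2500–0.042 nM final, 4% DMSO). ULight-JAK-1 (Tyr1023) peptide (100 nM final) and ATP (10 μM final) reacted 60 min in the dark. Inhibition was taken relative to controls, then IC50 fitted.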

As usually defined, the IC50 is the concentration that inhibits the measured activity by half.

Chain of c-MET kinase (P08581 25-1390): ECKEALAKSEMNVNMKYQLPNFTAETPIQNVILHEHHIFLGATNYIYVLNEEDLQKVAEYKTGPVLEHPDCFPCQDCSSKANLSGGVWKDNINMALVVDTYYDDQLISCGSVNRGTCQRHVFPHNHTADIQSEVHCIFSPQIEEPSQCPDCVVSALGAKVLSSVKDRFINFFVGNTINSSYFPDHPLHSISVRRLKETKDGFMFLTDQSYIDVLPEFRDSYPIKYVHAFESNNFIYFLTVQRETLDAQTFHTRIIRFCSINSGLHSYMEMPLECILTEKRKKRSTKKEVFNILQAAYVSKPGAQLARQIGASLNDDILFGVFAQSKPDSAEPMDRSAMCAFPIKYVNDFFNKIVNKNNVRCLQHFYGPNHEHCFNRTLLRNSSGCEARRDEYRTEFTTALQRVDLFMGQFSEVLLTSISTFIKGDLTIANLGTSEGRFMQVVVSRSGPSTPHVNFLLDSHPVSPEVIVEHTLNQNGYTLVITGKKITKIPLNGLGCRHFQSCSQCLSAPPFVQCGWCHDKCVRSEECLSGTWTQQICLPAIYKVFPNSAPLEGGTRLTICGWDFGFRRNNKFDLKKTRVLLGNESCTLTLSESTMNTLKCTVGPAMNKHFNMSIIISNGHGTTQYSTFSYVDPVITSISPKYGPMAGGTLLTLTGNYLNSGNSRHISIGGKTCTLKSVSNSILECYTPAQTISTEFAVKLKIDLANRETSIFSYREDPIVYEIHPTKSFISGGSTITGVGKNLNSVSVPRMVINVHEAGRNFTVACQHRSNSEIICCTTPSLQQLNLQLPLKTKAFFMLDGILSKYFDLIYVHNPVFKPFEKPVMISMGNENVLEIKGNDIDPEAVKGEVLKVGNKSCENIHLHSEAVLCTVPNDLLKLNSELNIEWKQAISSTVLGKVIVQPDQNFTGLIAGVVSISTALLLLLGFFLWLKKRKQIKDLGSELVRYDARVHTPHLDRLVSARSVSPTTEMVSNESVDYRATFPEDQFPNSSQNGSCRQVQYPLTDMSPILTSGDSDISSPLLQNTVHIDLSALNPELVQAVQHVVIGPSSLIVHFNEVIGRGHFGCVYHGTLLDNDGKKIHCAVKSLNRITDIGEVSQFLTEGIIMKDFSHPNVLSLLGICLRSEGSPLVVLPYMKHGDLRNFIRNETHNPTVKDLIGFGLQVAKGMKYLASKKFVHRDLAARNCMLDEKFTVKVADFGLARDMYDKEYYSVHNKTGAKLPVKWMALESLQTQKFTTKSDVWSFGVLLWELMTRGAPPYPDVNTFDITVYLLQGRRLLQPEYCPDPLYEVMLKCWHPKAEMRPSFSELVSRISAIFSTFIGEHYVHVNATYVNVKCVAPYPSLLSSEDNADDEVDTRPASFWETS
Chain of MER kinase (Q12866 21-999): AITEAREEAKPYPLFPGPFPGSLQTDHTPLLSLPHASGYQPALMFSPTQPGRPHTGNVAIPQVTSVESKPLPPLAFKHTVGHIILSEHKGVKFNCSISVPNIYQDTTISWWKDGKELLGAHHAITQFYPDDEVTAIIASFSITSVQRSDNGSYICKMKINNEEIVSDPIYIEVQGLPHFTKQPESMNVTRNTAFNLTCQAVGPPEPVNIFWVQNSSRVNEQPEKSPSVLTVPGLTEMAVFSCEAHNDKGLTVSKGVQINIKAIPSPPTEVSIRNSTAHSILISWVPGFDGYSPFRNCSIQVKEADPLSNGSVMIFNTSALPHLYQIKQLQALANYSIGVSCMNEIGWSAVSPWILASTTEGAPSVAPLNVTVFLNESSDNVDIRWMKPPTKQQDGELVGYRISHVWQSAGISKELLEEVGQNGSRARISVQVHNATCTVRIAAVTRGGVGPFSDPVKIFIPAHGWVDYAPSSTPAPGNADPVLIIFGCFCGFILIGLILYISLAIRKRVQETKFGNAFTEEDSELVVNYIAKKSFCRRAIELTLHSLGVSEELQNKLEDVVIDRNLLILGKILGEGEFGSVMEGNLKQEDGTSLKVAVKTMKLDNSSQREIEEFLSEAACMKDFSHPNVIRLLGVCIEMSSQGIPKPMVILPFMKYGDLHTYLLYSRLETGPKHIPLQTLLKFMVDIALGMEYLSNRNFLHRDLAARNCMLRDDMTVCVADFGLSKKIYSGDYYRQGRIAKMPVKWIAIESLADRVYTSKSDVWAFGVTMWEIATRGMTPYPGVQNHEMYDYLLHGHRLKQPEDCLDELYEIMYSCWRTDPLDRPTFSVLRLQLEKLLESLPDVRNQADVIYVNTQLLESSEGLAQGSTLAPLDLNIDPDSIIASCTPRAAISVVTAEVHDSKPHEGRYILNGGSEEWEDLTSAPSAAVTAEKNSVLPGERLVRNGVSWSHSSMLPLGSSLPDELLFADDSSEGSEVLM

As for `CCOc1ccn(-c2ccc(Cl)cc2)c(=O)c1C(=O)Nc1ccc(Oc2ccnc3cc(OC)c4c(c23)OCCO4)c(F)c1` [Example 113, N-(3-fluoro-4-((5-methoxy-2,3-dihydro-[1,4]dioxino[2,3-f]quinolin-10-yl)oxy)phenyl)-2-oxo-4-ethoxy-1-(4-chlorophenyl)-1,2-dihydropyridin-3-carboxamide], the IC50 is under 50 nM in assay [1], at most 50 nM in assay [2] and at most 50 nM in assay [3].

Turning to `CCOc1ccn(-c2cccc(F)c2)c(=O)c1C(=O)Nc1ccc(Oc2ccnc3cc(OC)c4c(c23)OCCO4)c(F)c1` [Example 114, N-(3-fluoro-4-((5-methoxy-2,3-dihydro-[1,4]dioxino[2,3-f]quinolin-10-yl)oxy)phenyl)-2-oxo-4-ethoxy-1-(3-fluorophenyl)-1,2-dihydropyridin-3-carboxamide], the IC50 in assay [1] is under 50 nM; in assay [2] it was at most 50 nM; in assay [3], at most 50 nM.

With `CCOc1ccn(-c2ccc(F)cc2)c(=O)c1C(=O)Nc1cc(F)c(Oc2ccnc3cc(OC)c4c(c23)OCCO4)cc1Cl` [Example 115, N-(2-chloro-5-fluoro-4-((5-methoxy-2,3-dihydro-[1,4]dioxino[2,3-f]quinolin-10-yl)oxy)phenyl)-4-ethoxy-2-oxo-1-(4-fluorophenyl)-1,2-dihydropyridin-3-carboxamide], the values for the IC50 in assay [1], in assay [2] and in assay [3] were under 50 nM, at most 50 nM and at most 50 nM, respectively.

Regarding `COc1cc2nccc(Oc3cc(Cl)c(NC(=O)c4cn(C)c(=O)n(-c5ccc(F)cc5)c4=O)cc3F)c2c2c1OCCO2` [Example 116, N-(2-chloro-5-fluoro-4-((5-methoxy-2,3-dihydro-[1,4]dioxino[2,3-f]quinolin-10-yl)oxy)phenyl)-3-(4-fluorophenyl)-1-methyl-2,4-dioxo-1,2,3,4-tetrahydropyrimidine-5-carboxamide], the 50% inhibitory concentration (IC50) was under 50 nM in assay [1], at most 50 nM in assay [2] and at most 50 nM in assay [3].

Take `CCOc1ccn(Cc2ccccc2)c(=O)c1C(=O)Nc1ccc(Oc2ccnc3cc(OC)c4c(c23)OCCO4)c(F)c1` [Example 117, N-(3-fluoro-4-((5-methoxy-2,3-dihydro-[1,4]dioxino[2,3-f]quinolin-10-yl)oxy)phenyl)-2-oxo-4-ethoxy-1-benzyl-1,2-dihydropyridin-3-carboxamide]: the IC50 in assay [1] was under 50 nM; in assay [2], at most 50 nM; in assay [3], at most 50 nM.

For `CCOc1ccn(-c2ccc(F)cc2)c(=O)c1C(=O)Nc1ccc(Oc2ccnc3cc(OCC(C)(C)O)c4c(c23)OCCO4)c(F)c1` [Example 120, N-(3-fluoro-4-((5-(2-hydroxy-2-methylpropoxy)-2,3-dihydro-[1,4]dioxino[2,3-f]quinolin-10-yl)oxy)phenyl)-4-ethoxy-1-(4-fluorophenyl)-2-oxo-1,2-dihydropyridine-3-carboxamide], the half-maximal inhibitory concentration (IC50) in assay [1] is under 50 nM; in assay [2] it was at most 50 nM; in assay [3], at most 50 nM.

For `Cn1cc(C(=O)Nc2ccc(Oc3ccnc4cc(OCC(C)(C)O)c5c(c34)OCCO5)c(F)c2)c(=O)n(-c2ccc(F)cc2)c1=O` [Example 121, N-(3-fluoro-4-((5-(2-hydroxy-2-methylpropoxy)-2,3-dihydro-[1,4]dioxino[2,3-f]quinolin-10-yl)oxy)phenyl)-3-(4-fluorophenyl)-1-methyl-2,4-dioxo-1,2,3,4-tetrahydropyrimidine-5-carboxamide], the IC50 in assay [1] was under 50 nM; in assay [2], at most 50 nM; in assay [3], 50 to 500 nM.

With `CC(C)n1cc(C(=O)Nc2ccc(Oc3ccnc4cc(OCC(C)(C)O)c5c(c34)OCCO5)c(F)c2)c(=O)n(-c2ccc(F)cc2)c1=O` [Example 122, N-(3-fluoro-4-((5-(2-hydroxy-2-methylpropoxy)-2,3-dihydro-[1,4]dioxino[2,3-f]quinolin-10-yl)oxy)phenyl)-3-(4-fluorophenyl)-1-isopropyl-2,4-dioxo-1,2,3,4-tetrahydropyrimidine-5-carboxamide], the values for the IC50 in assay [1], in assay [2] and in assay [3] were under 50 nM, at most 50 nM and at most 50 nM, respectively.

As for `CCOc1ccn(-c2ccc(F)cc2)c(=O)c1C(=O)Nc1ccc(Oc2ccnc3cc(OC)c4c(c23)OCCO4)cc1Cl` [Example 126, N-(2-chloro-4-((5-methoxy-2,3-dihydro-[1,4]dioxino[2,3-f]quinolin-10-yl)oxy)phenyl)-1-(4-fluorophenyl)-4-ethoxy-2-oxo-1,2-dihydropyridine-3-carboxamide], the figures for the IC50 in assay [1], in assay [2] and in assay [3] were under 50 nM, at most 50 nM and at most 50 nM, respectively.

With `COc1ccn(-c2ccc(F)cc2)c(=O)c1C(=O)Nc1ccc(Oc2ccnc3cc(OCCCC#N)c4c(c23)OCCO4)cc1Cl` [Example 132, N-(2-chloro-4-((5-(3-cyanopropoxy)-2,3-dihydro-[1,4]dioxino[2,3-f]quinolin-10-yl)oxy)phenyl)-1-(4-fluorophenyl)-4-methoxy-2-oxo-1,2-dihydropyridine-3-carboxamide], the IC50 in assay [1] is under 50 nM; in assay [2], at most 50 nM; in assay [3] it was at most 50 nM.

Turning to `CCOc1ccn(-c2ccc(F)cc2)c(=O)c1C(=O)Nc1ccc(Oc2ccnc3cc(OCCCC#N)c4c(c23)OCCO4)cc1Cl` [Example 134, N-(2-chloro-4-((5-(3-cyanopropoxy)-2,3-dihydro-[1,4]dioxino[2,3-f]quinolin-10-yl)oxy)phenyl)-1-(4-fluorophenyl)-4-ethoxy-2-oxo-1,2-dihydropyridine-3-carboxamide], the half-inhibitory concentration (IC50) in assay [1] was under 50 nM; in assay [2], at most 50 nM; in assay [3] it was at most 50 nM.

Consider `Cn1cc(C(=O)Nc2ccc(Oc3ccnc4cc(OCC(C)(C)O)c5c(c34)OCCO5)cc2Cl)c(=O)n(-c2ccc(F)cc2)c1=O` [Example 141, N-(2-chloro-4-((5-(2-hydroxy-2-methylpropoxy)-2,3-dihydro-[1,4]dioxino[2,3-f]quinolin-10-yl)oxy)phenyl)-3-(4-fluorophenyl)-1-methyl-2,4-dioxo-1,2,3,4-tetrahydropyrimidine-5-carboxamide], for which the results for the IC50 in assay [1], in assay [2] and in assay [3] were under 50 nM, 50 to 500 nM and at most 50 nM, respectively.

`CCOc1ccn(-c2ccc(F)cc2)c(=O)c1C(=O)Nc1ccc(Oc2ccnc3cc(OCC(C)(C)O)c4c(c23)OCCO4)cc1Cl` [Example 142, N-(2-chloro-4-((5-(2-hydroxy-2-methylpropoxy)-2,3-dihydro-[1,4]dioxino[2,3-f]quinolin-10-yl)oxy)phenyl)-1-(4-fluorophenyl)-4-ethoxy-2-oxo-1,2-dihydropyridine-3-carboxamide]: the IC50 in assay [1] is under 50 nM; in assay [2] it was at most 50 nM; in assay [3], at most 50 nM.
